Assay results: PubChem BioAssay (NCI)
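How tested: cells in 96-well plates exposed to compound for 48 hours at five concentrations. Definition used: TGI = concentration required for complete inhibition of growth.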

Columns and labels:
Test in all cases: growth of human tumour cells (NCI), 48 h
[1] = system: UACC-62 melanoma
[2] = system: SF-539 CNS
[3] = system: NCI-H460 lung
[4] = system: A498 renal
[5] = system: PC-3 prostate
[6] = system: SN12C renal
[7] = system: MDA-MB-231 breast
[8] = system: M14 melanoma
[9] = system: SW-620 colon
[10] = system: HOP-62 NSCLC
[11] = system: MDA-MB-435
[12] = system: MALME-3M melanoma
[13] = system: MOLT-4 leukemia
[14] = system: SK-OV-3 ovarian
[15] = system: NCI-H226 lung
[16] = system: NCI-H23 lung
[17] = system: RXF 393 renal
[18] = system: COLO 205 colon
[19] = system: IGROV1 ovarian
[20] = system: CCRF-CEM leukemia
[21] = system: HCT-15 colon
[22] = system: NCI/ADR-RES ovarian
[23] = system: A549 NSCLC
[24] = system: HT29 colon
[25] = system: SF-295 CNS
[26] = system: RPMI-8226 leukemia
[27] = system: U251 CNS
[28] = system: OVCAR-4 ovarian
[29] = system: NCI-H522 lung
[30] = system: SNB-19 CNS
[31] = system: EKVX NSCLC
[32] = system: HCT-116 colon
[33] = system: UO-31 renal
[34] = system: MDA-N
[35] = system: ACHN renal
[36] = system: SK-MEL-5 melanoma
[37] = system: LOX IMVI melanoma
[38] = system: UACC-257 melanoma
[39] = system: T-47D breast
[40] = system: TK-10 renal
[41] = system: OVCAR-8 ovarian
[42] = system: OVCAR-3 ovarian
[43] = system: SR leukemia
[44] = system: CAKI-1 renal
[45] = system: 786-0 renal
[46] = system: SK-MEL-2 melanoma
[47] = system: HOP-92 NSCLC
[48] = system: KM12 colon
[49] = system: OVCAR-5 ovarian
[50] = system: BT-549 breast
[51] = system: MCF7 breast
[52] = system: HCC-2998 colon
[53] = system: K-562 leukemia
[54] = system: HS 578T breast
[55] = system: SF-268 CNS
[56] = system: SK-MEL-28 melanoma
[57] = system: DU-145 prostate
[58] = system: SNB-75 CNS
[59] = system: HL-60(TB) leukemia

With `CCOC(=O)Nn1cnnc1C` the TGI [1] was over 100 µM, the TGI [2] was over 100 µM and the TGI [3] was over 100 µM. For the same molecule, the TGI [4] was over 100 µM, the TGI [5] was over 100 µM and the TGI [6] was over 100 µM. The TGI [7] was over 100 µM, the TGI [8] was over 100 µM and the TGI [9] was over 100 µM. The TGI [10] was over 100 µM, the TGI [11] was over 100 µM and the TGI [12] was over 100 µM. It also gave a TGI [13] of over 100 µM, a TGI [14] of over 100 µM and a TGI [15] of over 100 µM. It also gave a TGI [16] of over 100 µM, a TGI [17] of over 100 µM and a TGI [18] of over 100 µM. The TGI [19] was over 100 µM, the TGI [20] was over 100 µM and the TGI [21] was over 100 µM. The TGI [22] was over 100 µM, the TGI [23] was over 100 µM and the TGI [24] was over 100 µM. For the same molecule, the TGI [25] was over 100 µM, the TGI [26] was over 100 µM and the TGI [27] was over 100 µM. For the same molecule, the TGI [28] was over 100 µM, the TGI [29] was over 100 µM and the TGI [30] was over 100 µM. It also gave a TGI [31] of over 100 µM, a TGI [32] of over 100 µM and a TGI [33] of over 100 µM. For the same molecule, the TGI [34] was over 100 µM, the TGI [35] was over 100 µM and the TGI [36] was over 100 µM. For the same molecule, the TGI [37] was over 100 µM, the TGI [38] was over 100 µM and the TGI [39] was over 100 µM. For the same molecule, the TGI [40] was over 100 µM, the TGI [41] was over 100 µM and the TGI [42] was over 100 µM. The TGI [43] was over 100 µM, the TGI [44] was over 100 µM and the TGI [45] was over 100 µM. The TGI [46] was over 100 µM, the TGI [47] was over 100 µM and the TGI [48] was over 100 µM. For the same molecule, the TGI [49] was over 100 µM, the TGI [50] was over 100 µM and the TGI [51] was over 100 µM. For the same molecule, the TGI [52] was over 100 µM and the TGI [53] was over 100 µM.

`Cc1nc2nn[nH]n2c(=O)c1CCO` was tested, and the TGI [1] was over 100 µM, the TGI [2] was over 100 µM and the TGI [3] was over 100 µM. The TGI [4] was over 100 µM, the TGI [5] was over 100 µM and the TGI [6] was over 100 µM. The TGI [7] was over 100 µM, the TGI [8] was over 100 µM and the TGI [9] was over 100 µM. It also gave a TGI [10] of over 100 µM, a TGI [11] of over 100 µM and a TGI [12] of over 100 µM. For the same molecule, the TGI [13] was over 100 µM, the TGI [14] was over 100 µM and the TGI [15] was over 100 µM. The TGI [16] was over 100 µM, the TGI [17] was over 100 µM and the TGI [18] was over 100 µM. The TGI [19] was over 100 µM, the TGI [20] was over 100 µM and the TGI [54] was over 100 µM. For the same molecule, the TGI [21] was over 100 µM, the TGI [22] was over 100 µM and the TGI [23] was over 100 µM. It also gave a TGI [24] of over 100 µM, a TGI [25] of over 100 µM and a TGI [26] of over 100 µM. It also gave a TGI [27] of over 100 µM, a TGI [28] of over 100 µM and a TGI [29] of over 100 µM. It also gave a TGI [55] of over 100 µM, a TGI [30] of over 100 µM and a TGI [31] of over 100 µM. For the same molecule, the TGI [56] was over 100 µM, the TGI [32] was over 100 µM and the TGI [33] was over 100 µM. It also gave a TGI [34] of over 100 µM, a TGI [35] of over 100 µM and a TGI [36] of over 100 µM. It also gave a TGI [57] of over 100 µM, a TGI [37] of over 100 µM and a TGI [38] of over 100 µM. It also gave a TGI [39] of over 100 µM, a TGI [40] of over 100 µM and a TGI [41] of over 100 µM. It also gave a TGI [58] of 85.7 µM, a TGI [42] of over 100 µM and a TGI [43] of over 100 µM. It also gave a TGI [44] of over 100 µM, a TGI [45] of over 100 µM and a TGI [46] of over 100 µM. The TGI [47] was over 100 µM, the TGI [48] was over 100 µM and the TGI [59] was over 100 µM. For the same molecule, the TGI [49] was over 100 µM, the TGI [51] was over 100 µM and the TGI [52] was over 100 µM. The TGI [53] was over 100 µM.
